melting point | Structure (SMILES)
80 to 81 °C | CCNc1cccnc1N1CCN(C(=O)c2ccc(C(=O)OC)cn2)CC1
127 °C | CC(C)(C)OC(=O)N1CCN(S(=O)(=O)c2ccc(Br)s2)CC1
149 to 150 °C | COc1cc(C=CC2=CC(=O)C(C)(C)O2)cc(OC)c1OC
246 to 248 °C | COC(=O)c1ccc(CCC2CNc3nc(NC(=O)C(C)(C)C)nc(O)c3C2)[nH]1 (centres undefined)
129 to 132 °C | CC(C)(C)c1cc(N=C2CCCc3cc4c(nc32)C(=Nc2cc(C(C)(C)C)cc(C(C)(C)C)c2)CCC4)cc(C(C)(C)C)c1
160 to 161 °C | COC(=O)C1CSC=CCCCC(=O)N1 (centres undefined)
154 to 155 °C | COC1(OC)SC(c2ccncc2)=C(C)NC1=O
243 to 244 °C | CN(C)C(=O)C1=NN(c2ccccc2)C(C(N)=O)=NN1c1ccccc1
76 to 78 °C | COc1ccc(C(O)c2cccnc2)cc1OC (centres undefined)
180 °C | CCc1[nH]n(C2CCCC2)c2nc(-c3cccc(OCCN4CCCCC4)c3)nc(=O)c1-2
140 to 146 °C | COc1ccc2nc(COc3ccc(CC(Nc4ccccc4C(=O)c4ccccc4)C(=O)O)cc3)n(C)c2c1 (centres undefined)
208 to 210 °C | CCCN1N=C2C(=Cc3ccc(Cl)cc3)CS(=O)(=O)CC2C1c1ccc(Cl)cc1 (centres undefined)
136 to 137 °C | CCc1ccc2c(c1)CC(=O)N2
98 to 99 °C | O=C(c1ccc(Cl)cc1)C(Cc1ccc(Cl)cc1)c1cccnc1 (centres undefined)
77 to 78 °C | CCCc1c(OCCCOc2cc(OCc3ccccc3)c(-c3ccc(F)cc3)cc2CC)cccc1Oc1cc(F)ccc1C(=O)OC
202 to 204 °C | O=c1[nH]ncc2[nH]c(-c3ccc(OC(F)F)c(OC4CC4)c3)c(Cc3ccccc3F)c12
128 to 130 °C | Cc1ccccc1CNC(=O)c1ccc2n1Cc1ccccc1N(C(=O)c1ccc(-c3ccccc3C)c(C)c1)C2
176 to 178 °C | NC(=O)C1=NN(c2cccc(COc3ccccc3)c2)C(c2ccccc2F)N1 (centres undefined)
117 to 118 °C | Nc1ccc(CS(=O)(=O)NCc2ccccc2)cc1
198 °C | O=C(CCCCCCOc1ccc2c(c1)[nH]c1ccccc12)NO
248 to 255 °C | O=C(Nc1ccc(N2CCS(=O)(=O)CC2)c(C(F)(F)F)c1)N1CCc2cc(Oc3cc(Cl)ncn3)ccc21
146 to 147 °C | CCOC(=O)N/N=C/c1ccc(OC)c(OC2CCCC2)c1
93 to 95 °C | C[C@@H]1[C@H](c2ccccc2)OC(=O)N1C(=O)CCC(F)(F)F

melting point | Structure (SMILES)
93 to 95 °C | CCCCN(CCCC)CCCNS(=O)(=O)c1ccc2c(c1)C(=O)c1cc(S(=O)(=O)NCCCN(CCCC)CCCC)ccc1C2=O
44 to 45 °C | COc1cc(C(O)(C(F)(F)F)C(F)(F)F)cc(C)c1O
52 to 53 °C | COc1c(C)cccc1Oc1ccccc1
119 to 120 °C | O=C(O)c1cn(Cc2ccc(OCc3csc(-c4ccccc4)n3)cc2)nc1-c1ccccc1
126 to 128 °C | CSc1ccc2cc(C(=O)c3ccccc3)cc(CCNC(C)=O)c2c1
177 to 179 °C | CC12CCC3c4ccc(C(=O)O)cc4CCC3C1CCC2C(=O)c1cccs1 (centres undefined)
69 to 70 °C | CC(C)c1ccc(-c2c(Cl)ncnc2Cl)cc1
258 to 260 °C | Cc1cc(=O)c(OCc2ccccc2)c(C(=O)NC2CCCCC2)n1C
222 to 225 °C | NC(=O)CNC(=O)c1cc2c(Oc3ccc(Cl)cc3)cncc2s1
215 to 216 °C | Cc1ccc(N(c2ccc(C)cc2)c2ccc(-c3ccc(N(c4ccc(C)cc4)c4ccc(C)cc4)cc3)cc2)cc1
76 to 78 °C | CCCCCCCCCCOc1cc(OCCCCCCCCCC)cc(C(=O)C(=O)N(CC(=O)O)CC(=O)O)c1
75 to 76 °C | CNc1nc(OC(C)C)ccc1[N+](=O)[O-]
180 to 182 °C | COC1CC2(C)C(CCC3C4CC(C)C(C(C)=O)C4(C)CC(=O)C32)CC1O (centres undefined)
255 to 256 °C | O=c1[nH]c(=Cc2ccc(OCc3ccccc3)cn2)c(=O)[nH]c1=Cc1ccc2c(c1)OCO2
93 to 95 °C | CCC(Oc1ccc(Cl)c(C(F)(F)F)c1)C(=O)NCc1ccccc1 (centres undefined)
136 to 138 °C | O=[N+]([O-])c1ccc2sc(=Nc3ccccc3)sc2c1
172 to 174 °C | COc1ccc(C(=O)OCCOC(=O)NC2(C(=O)O)CC2)cc1OC
205 to 206 °C | CCn1ncc2c1ncc1c(Nc3cccc(C(F)(F)F)c3)nc3cc(C)nn3c12
55 to 57 °C | COc1cc(COc2ccccc2O)cc(OC)c1
146 to 148 °C | Cc1ccc2nc(-c3ccc4c(c3)sc(=N)n4C)sc2c1
98 °C | Cc1cc(-n2ccnc2)c2cccc(OCc3c(Cl)ccc(S(=O)(=O)N4CCC[C@H]4C(=O)N4CCN(C(=O)OC(C)(C)C)CC4)c3Cl)c2n1
155 to 157 °C | C=C1CCC2C3CCC4=CC(=O)C=CC4(C)C3CCC12C (centres undefined)
130 to 135 °C | CN(C)CCC(C(=O)O)c1cccc2ccccc12 (centres undefined)

melting point | Structure (SMILES)
100 to 102 °C | COc1ccccc1COc1ccc(S(=O)(=O)c2ccc(C)nc2Nc2ccc(S(C)(=O)=O)cc2Cl)cc1
167 to 169 °C | Cn1c(CC#N)ccc1C(=O)c1ccc([N+](=O)[O-])cc1
99 to 100 °C | COC(=O)c1nc(Cl)sc1-c1cccc(F)c1
163 to 164 °C | Cc1nc(-c2cccc(-n3cnc4cc(I)ccc43)c2)cs1
111 °C | CC(=O)[C@H]1[C@H](C(=O)O)C1(C)C (relative stereo)
160 to 161 °C | Cc1cccc2c(C(CO)=C3SC(=O)NC3=O)cccc12
197 to 200 °C | OCC(O)COc1ccc(-c2nc(-c3cccs3)c[nH]2)cc1 (centres undefined)
218 to 220 °C | O=C(CCCCCc1ccc(Cl)cc1)Nc1ccc(C(=O)O)cc1
204 to 207 °C | Cc1nnc2ccc(-c3cccc(N4CCCCC4=O)c3)nn12
27 to 30 °C | COC(=S)C(Cl)=C(C)Cl
179 to 180 °C | Cc1cn(C2CC(O)C(CNCc3ccc(Cl)cc3)O2)c(=O)[nH]c1=O (centres undefined)
183 to 186 °C | COCCc1nc2c(N)nc3ccccc3c2n1CCCNC(=O)c1ccccc1
140 to 143 °C | O=C(O)CCCCCCc1ccc(CCNC(=O)c2ccc(Cl)cc2)cc1
219 to 220 °C | c1ccc2c(c1)Cc1c(-c3ccsc3)n[nH]c1-2
121 to 123 °C | COC(=O)NS(=O)(=O)c1cccc([N+](=O)[O-])c1
216 to 235 °C | COc1cc2c(cc1Nc1ncc(Cl)c(N[C@@H]3CCCC[C@H]3NS(C)(=O)=O)n1)CCN(CCS(C)(=O)=O)CC2
190 to 200 °C | CCc1c(-c2ccc(O)cc2)c2c(C(=O)N(C)CCN(C)C)cc3cc(OC)cc1n32
196 to 198 °C | CC(=O)O[C@@H]1OCC[C@@H]1NC(=O)[C@H](CC(C)C)NC(=O)Nc1cccc2ccccc12
189 to 191 °C | Cn1cc(C(=O)NCc2ccc(Cl)cc2)c(=O)c2cc(CN3CCOCC3)cc(C#CCF)c21
122 to 125 °C | COC(=O)c1nc(-c2ccc(Cl)c(OC)c2F)cc(N)c1C
142 to 144 °C | O=C(CCCBr)Nc1ccc(O)cc1
169 to 170 °C | COc1cc2ccnc(C(S)(C#N)CCC(=O)O)c2cc1OC (centres undefined)
147 to 150 °C | CN1CC(C(=O)N(Cc2ccc(F)cc2)OCC(=O)O)=C(O)C1=O

melting point | Structure (SMILES)
240 to 255 °C | Cc1nc2c(/C=C/c3ccccc3)cccn2c1C
119 to 121 °C | C[N+]([O-])=C(Cn1cncn1)c1ccc(Cl)cc1
138 to 139 °C | C/C(=C\CC1OC(=O)NC1=O)c1cccc(Cc2nc(-c3ccccc3)oc2C)c1 (centres undefined)
53 to 54 °C | N#CCCSc1ccc(Cl)cc1
105 to 109 °C | O=CNC(O)C(Cl)(Cl)CCl (centres undefined)
220 to 222 °C | O=C1OC(=O)c2cc(C#Cc3cccc4ccccc34)ccc21
160 °C | CCOc1cccc(C)c1S(=O)(=O)NC(=O)n1nc(OCC)n(C)c1=O
149 to 154 °C | COc1cc2c(c3c1OC(C)(C)C3)C(c1cccc(-c3ccc(NC(=O)C(F)(F)F)cc3)c1)=NC(C)(C)C2
147 to 148 °C | O=C1C(=Cc2cccc3ccccc23)CCc2cc(OCCn3ccnc3)ccc21
141 to 142 °C | O=C(C(=O)c1ccc(C(F)(F)F)cc1)c1ccc(C(F)(F)F)cc1
148 to 150 °C | CCOC(=O)C1CC(=O)c2nc(C)n(C)c2C1 (centres undefined)
96 °C | CCCCc1nc(Sc2ccc(OC)cc2)c(C(=O)OCC)[nH]1
275 to 279 °C | COCCOc1ccccc1-c1cc2[nH]c3ccc(O)cc3c2c2c1C(=O)NC2=O
95 to 105 °C | c1ccc2c(c1)-c1cccc3c(NCCCCNc4nccc5ccccc45)nnc-2c13
63.8 °C | O=C(Cl)N1CCC(N2CCCCC2)CC1
49 to 50 °C | C#CCOC(=O)c1c(F)cccc1Oc1nc(OC)cc(OC)n1
219 °C | OC1CCN(c2ccccc2)C12CCN(C1CC3CCCCCC3C1)CC2 (centres undefined)
209 to 210 °C | COc1cc(C2=CCCc3ccccc32)c(Cl)cc1C(=O)N1Cc2cccn2Cc2ccccc21
221 to 224 °C | Cc1ccc(OCc2ccccc2)c2[nH]c(-c3ccccc3)nc12
221 to 224 °C | O=C1Nc2cccc(Br)c2C(=O)N2CCC[C@@H]12
70 °C | CC#CC1CCC(C2CCC(c3ccc(CCC)cc3)CC2)CC1 (centres undefined)
123 to 124 °C | NC(=O)Cc1cc(Oc2ccc3c(ccn3C(=O)Nc3ccc(CN4CCCC4)c(C(F)(F)F)c3)c2)ncn1
247 to 251 °C | COc1cccc2c1C(=O)N1CCC[C@H]1C(=O)N2

Structure (SMILES) | melting point
Cc1cc(F)ccc1-n1c(CF)nc2ccc(N)cc2c1=O | 193 to 196 °C
O=C(Oc1ccc2c(c1)C13CCCCC1N(C2)N(C(=O)C1CC1)CC3)C1CC1 (single isomer, unassigned; (+)) | 144 °C
ClCCN1c2cc3c(cc2C(c2cccs2)=NCC1CCl)OCCO3 (centres undefined) | 184 to 187 °C
COc1ccc(OC)c(C2(O)CCCCC2C(c2ccccc2)N(C)C)c1 (centres undefined) | > 240 °C
Nc1c2c(nc3cc(C(F)(F)F)ccc13)CCSC2 | 253 to 259 °C
CN1CC[C@@H]2CC(=O)c3cc(F)c(F)cc3[C@@H]2C1 (relative stereo) | > 250 °C
O=[N+]([O-])c1ccc(NCC23CCCN2CCC3)c2ccccc12 | 143 to 144 °C

Reference: a melting point compilation (Tetko et al.; mined from patent text by program, amines drawn as free bases though some values may be those of a salt)
